Consider 3 compounds from patent US20080312206A1, “Chemical Compounds-149” (AstraZeneca AB, priority 2005, published 2008).

This test concerns the target T1, CSF-1R (Homo sapiens, UniProt P07333).
T1 construct: amino acids 568-912, GeneBank ID NM_005211; His; made in house; host or cells: baculovirus infected SF+Express insect cells
T1 sequence (P07333 568-912): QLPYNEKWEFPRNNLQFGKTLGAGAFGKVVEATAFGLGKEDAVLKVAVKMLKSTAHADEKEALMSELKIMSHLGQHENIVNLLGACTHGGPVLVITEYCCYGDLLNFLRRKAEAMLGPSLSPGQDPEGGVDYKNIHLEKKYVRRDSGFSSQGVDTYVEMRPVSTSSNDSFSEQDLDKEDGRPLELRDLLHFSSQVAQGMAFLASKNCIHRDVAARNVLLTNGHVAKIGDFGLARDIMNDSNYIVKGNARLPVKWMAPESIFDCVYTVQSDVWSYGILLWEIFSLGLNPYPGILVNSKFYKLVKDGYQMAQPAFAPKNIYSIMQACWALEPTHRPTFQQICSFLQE
Kind of test: CSF-1R In Vitro AlphaScreen Assay. To be noted: purified His-tagged kinase domain of CSF-1R, pEY substrate, 90 μM ATP. Format: biochemical. The method, then: CSF-1R In Vitro AlphaScreen Assay
Activity of purified CSF-1R was determined in vitro using an Amplified Luminescent Proximity Homogeneous Assay (ALPHA)(Perkin Elmer), which measures phosphorylation of the CSF-1R substrate, biotinylated poly-glutamine-tyrosine peptide (pEY-HTRF CisBio 61GT0BLD), as described below. The His-tagged kinase domain of CSF-1R (i.e., amino acids 568-912, GeneBank ID NM_005211; (see page 25 lines 13-19 of WO 2006/067445 for the sequence listing)) was purified from baculovirus infected SF+Express insect cells (1.4×10^6 cells/ml), French pressed and chromatographed through subsequent Qiagen Ni-NTA, Superflow Mono Q HR 10/10, and Superdex 200 SEC columns. Typical yield was 322 ug/l of cell pellet at >95% purity.
The phosphorylation of the CSF-1R substrate in the presence and absence of the compound of interest was determined. Briefly, 0.2 pM of purified CSF-1R, 5 nM pEY substrate, and compound were preincubated in 1× buffer for 30 minutes at 25° C. Reactions were initiated with addition of 90 μM adenosine triphosphate (ATP) in 1× buffer and incubated at 25° C. for 40 minutes and reactions stopped by addition of 5 μl of detection mix consisting of 136 mM NaCl, 102 mM ethylenediamine tetraacetic acid, 1.65 mg/ml BSA, 40 ug/ml Streptavidin donor beads (Perkin Elmer 6760620M), 40 ug/ml pEY100 acceptor beads (Perkin Elmer 6760620M). Plates were incubated at 25° C. for 18 hours in the dark. Phosphorylated substrate was detected by an EnVision plate reader (Perkin Elmer) 680 nm excitation, 520-620 nm emission. Data was graphed and IC50s calculated using Excel Fit (Microsoft).

Structures are written as SMILES. pIC50: −log10 of the molar value.

In turn, `Cc1cc(C)cc(C(=O)Nc2ccc(Cl)c(C(=O)Nc3cnc(C(C)C)s3)c2)c1` [Example 20, 2-Chloro-5-[(3,5-dimethylbenzoyl)amino]-N-(2-isopropyl-1,3-thiazol-5-yl)benzamide] had a pIC50 of 8.00.

As to `CON(C)C(=O)c1ncc(NC(=O)c2cc(NC(=O)c3cccc(C(C)(C)C#N)c3)ccc2C)s1` [Example 15, 5-[(5-{[3-(1-Cyano-1-methylethyl)benzoyl]amino}-2-methylbenzoyl)amino]-N-methoxy-N-methyl-1,3-thiazole-2-carboxamide], the pIC50 was 8.15. The pIC50 values of the last two compounds are within 0.2 log units of each other.

In the case of `CC(C)c1ncc(NC(=O)c2cc(NC(=O)c3cc(F)cc(C(F)(F)F)c3)ccc2Cl)s1` [Example 21, 2-Chloro-5-{[3-fluoro-5-(trifluoromethyl)benzoyl]amino}-N-(2-isopropyl-1,3-thiazol-5-yl)benzamide], the pIC50 was 7.89.
